SMILES strings stand for the structures. The source made the active and inactive calls. The calls are words filed in the database; no cut-off is given here.

Common to all, as to assay type: functional, organism-based
The subject of experiment [1] is Cavia porcellus. The experiment is described as follows: Antitussive activity against citric acid-induced cough in Cavia porcellus albino (guinea pig) model assessed as decrease in cough frequency per 10 min at 5 to 20 mg/kg, ip administered 30 min before aersol of citric acid for 10 min.
The subject of experiment [2] is Cavia porcellus. The experiment is described as follows: Antitussive activity against citric acid-induced cough in Cavia porcellus albino (guinea pig) model assessed as increase in cough latency at 5 to 20 mg/kg, ip administered 30 min before aersol of citric acid for 10 min.
Experiment [3] relates to Cavia porcellus. The experiment in a line: Antitussive activity against citric acid-induced cough in Cavia porcellus albino (guinea pig) model assessed as increase in cough latency at 10 mg/kg, ip administered 30 min before aersol of citric acid for 10 min. On the set-up: dose 10 mg/kg.
Experiment [4] concerns Cavia porcellus. The experiment is described as follows: Antitussive activity against citric acid-induced cough in Cavia porcellus albino (guinea pig) model assessed as decrease in cough frequency per 10 min at 10 mg/kg, ip administered 30 min before aersol of citric acid for 10 min. On the set-up: dose 10 mg/kg.

For `Nc1ccc2nc3n(c(=O)c2c1)CCCCC3`, the inhibition entry in the experiment on Cavia porcellus [1] is “Active”. Further, the outcome in the experiment with Cavia porcellus [2] was Active.
With `O=c1c2cc([N+](=O)[O-])ccc2nc2n1CCCCC2`, the inhibition entry in the experiment on Cavia porcellus [1] was “Active”. Also, the outcome in the experiment with Cavia porcellus [2] was Active.
Consider `O=c1c2cc(Br)cc(Br)c2nc2n1CCCCC2`, for which, in the experiment with Cavia porcellus [1], the inhibition entry is “Active”. The outcome in the experiment on Cavia porcellus [2] was Active.
On to `COc1cc(OC)c2nc3n(c(=O)c2c1)CCCCC3`, for which the inhibition entry with Cavia porcellus [1] was “Active”. The result in the experiment on Cavia porcellus [2] was Active.
On to `CN1c2ccccc2C(=O)N2CCCCCC21` (centres undefined), for which the inhibition result in the experiment with Cavia porcellus [1] was “Active”. In addition, the outcome with Cavia porcellus [2] was Active.
`CCN1c2ccccc2C(=O)N2CCCCCC21` (centres undefined): in the experiment with Cavia porcellus [1], the inhibition result was “Active”. In addition, the outcome in the experiment with Cavia porcellus [2] was Active.
Consider `COc1cc(CNc2ccc3nc4n(c(=O)c3c2)CCCCC4)cc(OC)c1OC`, for which the inhibition result with Cavia porcellus [1] is “Active”. Moreover, the result in the experiment on Cavia porcellus [2] was Active.
For `O=C1c2ccccc2N(Cc2ccccc2)C2CCCCCN12` (centres undefined), in the experiment with Cavia porcellus [1], the inhibition entry was “Active”. Further, the outcome with Cavia porcellus [2] was Active.
As to `COc1ccc(CNc2ccc3nc4n(c(=O)c3c2)CCCCC4)cc1OC`, the inhibition result with Cavia porcellus [1] was “Active”. Further, the outcome in the experiment on Cavia porcellus [2] was Active.
On to `O=C1c2ccccc2N(C(=O)c2ccccc2)C2CCCCCN12` (centres undefined), for which the inhibition entry in the experiment with Cavia porcellus [1] is “Active”. Also, the outcome in the experiment on Cavia porcellus [2] was Active.
Turning to `O=c1c2ccccc2nc2n1CCCCC2`, in the experiment on Cavia porcellus [1], the inhibition result was “Active”. Also, the outcome with Cavia porcellus [2] was Active.
As to `O=c1c2cc(NCc3ccc([N+](=O)[O-])cc3)ccc2nc2n1CCCCC2`, the inhibition result in the experiment with Cavia porcellus [1] is “Active”. The outcome in the experiment on Cavia porcellus [2] was Active.
With `N#Cc1ccc(CNc2ccc3nc4n(c(=O)c3c2)CCCCC4)cc1`, the inhibition result in the experiment with Cavia porcellus [1] is “Active”. In addition, the outcome in the experiment on Cavia porcellus [2] was Active.
For `O=c1c2cc(O)cc(O)c2nc2n1CCCCC2`, the inhibition result with Cavia porcellus [1] is “Active”. Besides, the result in the experiment with Cavia porcellus [2] was Active.
For `CC(=O)N1c2ccccc2C(=O)N2CCCCCC21` (centres undefined), the inhibition result with Cavia porcellus [1] was “Active”. For the same compound, in the experiment on Cavia porcellus [2], the result was Active.
For `COc1ccc2c3c1O[C@H]1[C@@H](O)C=C[C@H]4[C@@H](C2)N(C)CC[C@@]341`, in the experiment with Cavia porcellus [3], the result was Active. Further, in the experiment with Cavia porcellus [4], the inhibition entry is “Active”.
Take `O=C1c2ccccc2NC2CCCCCN12` (centres undefined): the inhibition entry in the experiment on Cavia porcellus [1] is “Active”. Further, the result in the experiment with Cavia porcellus [2] was Active.
